Test results reported in paper PMC12040169 (PLOS Biology, 2025).

Test: in vitro
Conditions: human, hela cells, % viability

Point of comparison: `Cc1ccc(C)c(OCCNS(=O)(=O)c2cc([N+](=O)[O-])ccc2C)c1` [CBK267393], viability at 28.5 h, 10 µM 87.1%. Against it:
- COc1cc(C)c(C)cc1S(=O)(=O)n1ccnc1C [CBK287579] — higher, 108%
- COc1ccc(-c2nccnc2N[C@@H](CO)C(C)C)cc1 [CBK089040] — higher, 98.5%
- O=C(CSc1ccc(Cl)cc1)Nc1cccc(-c2nc3ncccc3o2)c1 [CBK264989] — higher, 105%
- CCCCCC(=O)Nc1ccc(C(=O)CSc2nnc(-c3ccco3)o2)cc1 [CBK295134] — lower, 84%
- Cn1nccc1CN1CCC(Oc2ccccc2F)CC1 [CBK281618] — higher, 92%
- CCNC(=O)NC1CC(C)(C)Cc2c1cnn2-c1ccc(OC)cc1 (stereo not drawn) [CBK307313] — higher, 90.6%
- Cc1cc(C)c(NC(=O)CSc2nc(C)c(Cc3ccccc3)c(O)n2)c([N+](=O)[O-])c1 [CBK268715] — lower, 86.8%
- CCOC(=O)c1cn(CC)c2cc(N3CCOCC3)c(F)cc2c1=O [CBK307142] — higher, 95.7%
- COc1ccc(/C=C/C(=O)O)cc1S(=O)(=O)Nc1ccc(C(=O)O)cc1 [CBK261246] — higher, 108%
- O=C(Cc1c[nH]c(=O)[nH]c1=O)Nc1ncc(Cc2ccc(F)cc2)s1 [CBK285674] — higher, 103%
- CCn1c(CN2CCCC2c2nc(N(C)C)ncc2-c2ccc(F)cc2)nc2ccccc21 (stereo not drawn) [CBK285974] — higher, 94.9%
- Cc1cc(C(=O)NC(Cc2ccncc2)C2CC(O)C2)c(C)o1 (stereo not drawn) [CBK307181] — higher, 96.5%
- CCc1nc2ccc(C(=O)Nc3ccc(C(N)=O)cc3)cn2c1N(C)CCC(C)C [CBK145476] — higher, 90.7%
- COc1ccc(CC(=O)N2CCCC2c2nnc3ccccn23)cc1 (stereo not drawn) [CBK304719] — higher, 117%
- COc1cc(CN2CCN(C(=O)c3cccc(F)c3)CC2)cc(OC)c1O [CBK074633] — higher, 95.2%
- Cc1cn2c3c(=O)n(C)c(=O)n(C)c3nc2n1CCN1CCOCC1 [CBK270139] — higher, 91.7%
- O=C(NCc1ccccn1)c1cc2cc(F)ccc2[nH]1 [CBK107276] — higher, 102%
- O=c1[nH]c(=S)[nH]c2c1CCC2 [CBK113252] — higher, 92.4%
- CC(=O)c1cc(C)c(C)cc1N [CBK016322] — higher, 127%
- CSc1nccc(OCCOc2nccnc2N2CCNCC2)n1 [CBK000718G] — higher, 104%
- COc1ccc(-c2noc(CSc3nnc(-c4cccs4)n3-c3ccccc3)n2)cc1 [CBK268390] — higher, 107%
- COC(=O)NC(NC(=O)OC)C(=O)c1ccccc1 [CBK020208] — higher, 100%
- O=C(Cn1cc(Br)ccc1=O)NC1CCN(Cc2ccccn2)CC1 [CBK305686] — higher, 92.2%
- CC(C)(CN)CN(Cc1ccccc1C(F)(F)F)C(=O)Nc1ccc(Cl)cc1Cl [CBK026832C] — higher, 93.5%
- Cc1nnc(CN(C)C2CCN(CC3CCCC3)C2)n1C (stereo not drawn) [CBK304851] — higher, 106%
- CC(C)C[C@H](NC(=O)OC(C)(C)C)C(=O)NC[C@H]1CC[C@H](C(=O)O)CC1 [CBK286750] — lower, 85.9%
- O=c1cc(N2CCCCC2)cnn1Cc1nccs1 [CBK307678] — higher, 87.4%
- Cc1cc(N2CCCN(C(=O)CCCOc3ccccc3)CC2)ccn1 [CBK307052] — lower, 86.6%
- O=C(N[C@H]1C[C@H]2C(=O)NC[C@@H](CCC(=O)N3CCCCC3)N2C1)c1cccc(F)c1 [CBK289011] — lower, 85%
- COc1ccc(CC(=O)N(C)Cc2nnc3ccccn23)cc1 [CBK304935] — higher, 87.8%
- Cc1cc(C)c2c(n1)oc1c(NC(C)C)ncnc12 [CBK287917] — higher, 108%
- COC(=O)c1c(NC(=O)C(Cc2ccccc2)N2C(=O)c3ccccc3C2=O)sc2c1CCC2 (stereo not drawn) [CBK265744] — higher, 96.1%
- CC(=O)OCC(=O)Nc1ccc2cc(Br)cnc2n1 [CBK063311] — higher, 91.1%
- c1ccc(CNC2CCc3[nH]c4ccccc4c3C2)cc1 (stereo not drawn) [CBK091587T] — higher, 106%
- CC(=O)Nc1c(-c2ccc(C)cc2)c(=O)c2ccccc2n1C [CBK287775] — higher, 88%
- Cc1ccc(S(=O)(=O)NC(C)(C)C(=O)O)cc1 [CBK263840] — higher, 88.8%
- CC(C)(C)c1ccc(OCC(=O)Nc2ccc(S(=O)(=O)N3CCc4ccccc43)cc2)cc1 [CBK265352] — higher, 100%
- Cc1cc(C)nc(N2CCC(CC(=O)NCC(C)N3CCCCCC3)CC2)n1 (stereo not drawn) [CBK286029] — higher, 94.9%
- Cc1ccccc1-c1nnc(-c2ccc(C(=O)N=c3sccn3C)cc2)o1 [CBK298283] — higher, 97.1%
- Cc1nnc(SCCCNC(=O)C2CC(=O)N(Cc3ccccn3)C2)s1 (stereo not drawn) [CBK307529] — higher, 101%
- Cn1cccc1C(=O)NCc1ccccc1OC1CCNC1 (stereo not drawn) [CBK029463T] — higher, 88.7%
- O=C(NC1CCCCC1)c1cc(NC(=O)c2ccccc2C(=O)O)ccc1Cl [CBK287062] — higher, 96.3%
- CCOc1ccc(-c2noc(CCC(=O)NC)n2)cc1OC [CBK269226] — lower, 86.4%
- CN(C)CCCNc1nc(-c2cccc(Cl)c2)nc2ccccc12 [CBK267284C] — lower, 81.5%
- CN1CCC(N(C)C(=O)NCCOc2ccccc2)C1 (stereo not drawn) [CBK156018] — higher, 107%
- CC1(C)OCc2nc(C(O)C(C)(C)C)ccc2O1 (stereo not drawn) [CBK005386] — higher, 98.4%
- O=C(CCN1CCc2ccccc2C1)Nc1cccc(F)c1 [CBK264282] — higher, 103%
- Cc1ccc(S(=O)(=O)/N=C(\Nc2nc3ccccc3o2)NS(=O)(=O)c2ccc(C)cc2)cc1 [CBK266728] — lower, 86%
- O=C(O)C(=N\Nc1ccccc1)/C(=N/Nc1ccccc1)C(=O)O [CBK278303N] — higher, 100%
- Cc1ccc2c(c1)nc1n2CCC1O (stereo not drawn) [CBK113622] — higher, 88.1%
- CC(C)CCNC(=O)c1ccc(N2CCN(C(=O)c3ccccc3C(F)(F)F)CC2)nn1 [CBK153222] — higher, 114%
- CCc1ccc(CNC(=O)Cn2nnc(-c3ccc(CNC4CCC4)cc3)n2)cc1 [CBK155006T] — higher, 111%
- CC1=NNC(=O)C1Cc1ccc(F)cc1 (stereo not drawn) [CBK067755] — higher, 97.4%
- CCc1nnc(SCC(=O)Nc2cc(OC)ccc2OC)[nH]1 [CBK270167] — lower, 85.1%
- Cc1nc2c(c(=O)[nH]1)CN(CC1CCCCC1)CC2 [CBK283947] — lower, 86.7%
- CN(Cc1ccc(N2CCCCC2)cc1)S(=O)(=O)c1ccsc1C(=O)O [CBK295333] — lower, 85.5%
- CC(=O)Nc1cccc(NC(=O)c2ccc(CN3CCc4ccccc4C3)cc2)c1 [CBK269534] — higher, 92.2%
- CN(CP(=O)(O)CCc1ccccc1)S(C)(=O)=O [CBK263068] — higher, 95.1%
- Cc1cc(NC(=O)c2ccc(C(C)(C)C)cc2)nc2c1c(=O)oc1ccccc12 [CBK291200] — higher, 120%
- COc1ccc(Nc2nc(N)nc(CN3CC(C)CC(C)C3)n2)cc1 (stereo not drawn) [CBK288154] — higher, 99.2%
- CCn1c(C)nc2cc(NC(=O)Cn3cccc(C(=O)NC4CCCCC4)c3=O)ccc21 [CBK286042] — higher, 92.9%
- CCN(CC)CCN1C(=O)C(O)=C(C(=O)c2cccs2)C1c1ccccn1 (stereo not drawn) [CBK269319] — lower, 76.3%
- CCOC(=O)Nc1ccsc1C(=O)OC [CBK027880] — higher, 88.6%
- COc1ccc(CNC(=O)c2cc(O)nc3ccccc23)cc1OC [CBK296763] — higher, 90.2%
- Cc1cc2c(cc3c(=O)n(CC(=O)N4CCCC4)nc(C)n32)s1 [CBK284065] — higher, 92.4%
- O=C1CN(C(=O)NCC2COc3ccccc3O2)CCN1 (stereo not drawn) [CBK155847] — higher, 88.3%
- O=C(c1cnn(C(=O)c2ccc3c(=O)n4c(nc3c2)CCC4)c1)c1ccccc1O [CBK295145] — higher, 95.7%
- O=C(Nc1cccc2cccnc12)c1sc2ccccc2c1Cl [CBK262132] — higher, 98.8%
- CSCC[C@@H]1NC(=O)N(c2ccc(CN3CCOCC3)cc2)C1=O [CBK287954] — lower, 83.2%
- CC(Oc1ccccc1)C(=O)Nc1cccc(C#N)c1 (stereo not drawn) [CBK264062] — higher, 91%
- COc1ccc(/C=N/NC(=O)CCc2c(C)n[nH]c2C)cc1O [CBK262894] — higher, 93.6%
- CC(C)(CNC(=O)c1ccc(=O)n(CC(=O)NC2CCCCC2)c1)c1ccccc1F [CBK285983] — higher, 90.7%
- Cn1c(=O)c2c(ncn2CC(=O)Nc2ccccc2C#N)n(C)c1=O [CBK133465] — higher, 89.6%
- CNCCOc1ncccc1OCc1ccccc1 [CBK036306] — higher, 100%
- Cc1ccccc1NC(=O)NCc1ccccc1F [CBK105832] — higher, 97.4%
- Cc1ccc(-c2cc3ccccn3c2C(=O)CSc2nncn2C)cc1 [CBK269580] — lower, 83.5%
- O=[N+]([O-])c1ccc(CN2CCN(C3CCN(Cc4ccccc4)CC3)CC2)cc1 [CBK264310G] — higher, 98.5%
- O=C(CCc1nc2ccccc2nc1O)OCc1cccc([N+](=O)[O-])c1 [CBK266804] — lower, 85%
- CCN(C)Cc1cccc(CNc2ncnc3c2cnn3CCC#N)c1 [CBK305959] — higher, 92.2%
- O=C(CCn1cnc2ccccc2c1=O)Nc1ccc(S(=O)(=O)N2CCCC2)cc1 [CBK267642] — higher, 93%
- Nc1nonc1NC(=O)c1ccccc1Cl [CBK019040] — higher, 99.3%
- Cc1csc2c(C3CCN(C(=O)c4cnn(C)c4)CC3)nc(C)n12 [CBK285250] — higher, 89.7%
- Cc1ccc2nsnc2c1NC(=O)COc1ccccc1[N+](=O)[O-] [CBK263779] — higher, 92.7%
- O=C(Oc1cccc2cnccc12)c1ccccc1 [CBK022889C] — higher, 105%
- Cc1noc(C)c1C(=O)NC(Cc1ccsc1)c1cccnc1 (stereo not drawn) [CBK285100] — higher, 90.3%
- CC(=O)N1CCc2cc(C(=O)N[C@@H](Cc3ccccc3)C(=O)O)ccc21 [CBK298303] — higher, 102%
- CC(C)(CN1CCCC1)NC(=O)N1CCN(Cc2cccc(O)c2)CC1 [CBK307380] — lower, 86.6%

Same assay, conditions: human, hela cells, % viability, bulk resorufin, single well

Point of comparison: `CSc1cc(C)c2c(c1)COC1(CCN(C(=O)NC3CCCCC3)CC1)O2` [CBK060745], viability at 28.5 h, 10 µM 97.4%. Against it:
- Cc1ccccc1N1C(=O)/C(=N\Nc2ccc(S(=O)(=O)O)cc2)C(=O)NC1=S [CBK018165] — higher, 97.7%
